In ChEMBL document CHEMBL5244248, “A novel long-acting oxyntomodulin analogue eliminates diabetes and obesity in mice” (Eur J Med Chem, 2020):
Square brackets hold non-standard residues; d marks the D form. Peptide text beside a SMILES is read from it. Aib = CC(C)(N)C(=O)O

Experiments:
[1] = target: T1, Glucagon-like peptide 1 receptor (Mus musculus, UniProt O35659); test: Agonist activity at mouse GLP-1R expressed in CHO cells assessed as increase in cAMP accumulation; type: cell-based
T1 sequence (O35659 whole entry): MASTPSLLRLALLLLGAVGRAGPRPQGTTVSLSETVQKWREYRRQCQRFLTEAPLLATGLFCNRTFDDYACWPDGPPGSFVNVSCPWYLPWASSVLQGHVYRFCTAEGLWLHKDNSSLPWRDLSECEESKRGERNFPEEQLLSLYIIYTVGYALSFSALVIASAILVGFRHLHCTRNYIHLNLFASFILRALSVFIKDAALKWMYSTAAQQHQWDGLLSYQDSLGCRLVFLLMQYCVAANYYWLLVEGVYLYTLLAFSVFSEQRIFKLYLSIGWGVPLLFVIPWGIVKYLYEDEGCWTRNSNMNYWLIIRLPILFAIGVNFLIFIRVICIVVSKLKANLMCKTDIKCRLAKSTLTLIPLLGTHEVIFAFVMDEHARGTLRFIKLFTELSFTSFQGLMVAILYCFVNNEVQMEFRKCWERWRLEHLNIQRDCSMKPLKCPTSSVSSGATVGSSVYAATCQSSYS

Glucagon receptor = Glucagon receptor (Mus musculus, UniProt Q61606); test: Agonist activity at mouse GCGR expressed in CHO cells assessed as increase in cAMP accumulation; type: cell-based
Chain of Glucagon receptor (Q61606 whole entry): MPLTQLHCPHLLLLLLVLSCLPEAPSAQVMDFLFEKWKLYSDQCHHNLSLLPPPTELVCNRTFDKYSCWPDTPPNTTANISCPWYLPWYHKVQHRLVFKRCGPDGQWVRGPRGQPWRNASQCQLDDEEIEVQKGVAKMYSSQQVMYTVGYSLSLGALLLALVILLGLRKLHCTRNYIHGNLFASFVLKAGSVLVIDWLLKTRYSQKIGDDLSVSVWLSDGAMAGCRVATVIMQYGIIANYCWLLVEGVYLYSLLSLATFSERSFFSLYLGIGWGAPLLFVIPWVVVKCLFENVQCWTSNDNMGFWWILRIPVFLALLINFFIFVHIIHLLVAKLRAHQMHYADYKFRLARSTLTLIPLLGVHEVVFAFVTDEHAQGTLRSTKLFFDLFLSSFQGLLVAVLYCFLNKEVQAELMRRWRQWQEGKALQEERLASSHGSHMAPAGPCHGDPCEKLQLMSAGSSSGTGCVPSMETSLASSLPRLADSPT

CC[C@H](C)[C@H](NC(=O)[C@H](CC(N)=O)NC(=O)[C@H](CC(N)=O)NC(=O)[C@H](CCCNC(=N)N)NC(=O)[C@H](CC(N)=O)NC(=O)[C@H](CCCNC(=N)N)NC(=O)[C@H](CCCCN)NC(=O)[C@@H](NC(=O)[C@H](CC(N)=O)NC(=O)[C@H](CCSC)NC(=O)[C@H](CC(C)C)NC(=O)[C@H](Cc1c[nH]c2ccccc12)NC(=O)[C@H](CCC(N)=O)NC(=O)[C@@H](NC(=O)[C@H](Cc1ccccc1)NC(=O)[C@H](CCC(=O)O)NC(=O)[C@H](CCCCN)NC(=O)[C@H](C)NC(=O)[C@H](CCCNC(=N)N)NC(=O)[C@H](CCCCN)NC(=O)[C@H](CCC(=O)O)NC(=O)[C@H](CC(=O)O)NC(=O)[C@H](CC(C)C)NC(=O)[C@H](Cc1ccc(O)cc1)NC(=O)[C@H](CCCCN)NC(=O)[C@H](CO)NC(=O)[C@H](Cc1ccc(O)cc1)NC(=O)[C@H](CC(=O)O)NC(=O)[C@H](CO)NC(=O)[C@@H](NC(=O)[C@H](Cc1ccccc1)NC(=O)[C@@H](NC(=O)CNC(=O)[C@H](CCC(N)=O)NC(=O)C(C)(C)NC(=O)[C@@H](N)Cc1c[nH]cn1)[C@@H](C)O)[C@@H](C)O)C(C)C)[C@@H](C)O)C(=O)N[C@@H](C)C(N)=O
EC50 [1]: 0.61 nM
EC50 (Glucagon receptor): 0.94 nM

CSCC[C@H](NC(=O)[C@H](CC(C)C)NC(=O)[C@H](Cc1c[nH]c2ccccc12)NC(=O)[C@H](CCC(N)=O)NC(=O)[C@@H](NC(=O)[C@H](Cc1ccccc1)NC(=O)[C@H](CCC(=O)O)NC(=O)[C@H](CCCCN)NC(=O)[C@H](C)NC(=O)[C@H](CCCNC(=N)N)NC(=O)[C@H](CCCCN)NC(=O)[C@H](CCC(=O)O)NC(=O)[C@H](CC(=O)O)NC(=O)[C@H](CC(C)C)NC(=O)[C@H](Cc1ccc(O)cc1)NC(=O)[C@H](CCCCN)NC(=O)[C@H](CO)NC(=O)[C@H](Cc1ccc(O)cc1)NC(=O)[C@H](CC(=O)O)NC(=O)[C@H](CO)NC(=O)[C@@H](NC(=O)[C@H](Cc1ccccc1)NC(=O)[C@@H](NC(=O)CNC(=O)[C@H](CCC(N)=O)NC(=O)C(C)(C)NC(=O)[C@@H](N)Cc1c[nH]cn1)[C@@H](C)O)[C@@H](C)O)C(C)C)C(=O)N[C@@H](CC(N)=O)C(=O)N[C@H](C(=O)NCC(=O)N1CCC[C@H]1C(=O)N[C@@H](CO)C(=O)N[C@@H](CO)C(=O)NCC(=O)N[C@@H](C)C(=O)N1CCC[C@H]1C(=O)N[C@@H](CO)C(=O)N[C@@H](CS)C(N)=O)[C@@H](C)O
EC50 [1]: 0.4 nM
EC50 (Glucagon receptor): 0.59 nM

CSCC[C@H](NC(=O)[C@H](CC(C)C)NC(=O)[C@H](Cc1c[nH]c2ccccc12)NC(=O)[C@H](CCC(N)=O)NC(=O)[C@@H](NC(=O)[C@H](Cc1ccccc1)NC(=O)[C@H](CCC(=O)O)NC(=O)[C@H](CCCCN)NC(=O)[C@H](C)NC(=O)[C@H](CCCNC(=N)N)NC(=O)[C@H](CCCCN)NC(=O)[C@H](CCC(=O)O)NC(=O)[C@H](CC(=O)O)NC(=O)[C@H](CC(C)C)NC(=O)[C@H](Cc1ccc(O)cc1)NC(=O)[C@H](CCCCN)NC(=O)[C@H](CO)NC(=O)[C@H](Cc1ccc(O)cc1)NC(=O)[C@H](CC(=O)O)NC(=O)[C@H](CO)NC(=O)[C@@H](NC(=O)[C@H](Cc1ccccc1)NC(=O)[C@@H](NC(=O)CNC(=O)[C@H](CCC(N)=O)NC(=O)C(C)(C)NC(=O)[C@@H](N)Cc1c[nH]cn1)[C@@H](C)O)[C@@H](C)O)C(C)C)C(=O)N[C@@H](CC(N)=O)C(=O)N[C@H](C(=O)NCC(=O)N1CCC[C@H]1C(=O)N[C@@H](CO)C(=O)N[C@@H](CO)C(=O)NCC(=O)N[C@@H](C)C(=O)N1CCC[C@H]1C(=O)N[C@@H](CO)C(N)=O)[C@@H](C)O
EC50 [1]: 0.36 nM
EC50 (Glucagon receptor): 0.53 nM

CC[C@H](C)[C@H](NC(=O)[C@H](CC(N)=O)NC(=O)[C@H](CC(N)=O)NC(=O)[C@H](CCCNC(=N)N)NC(=O)[C@H](CC(N)=O)NC(=O)[C@H](CCCNC(=N)N)NC(=O)[C@H](CCCCN)NC(=O)[C@@H](NC(=O)[C@H](CC(N)=O)NC(=O)[C@H](CCSC)NC(=O)[C@H](CC(C)C)NC(=O)[C@H](Cc1c[nH]c2ccccc12)NC(=O)[C@H](CCC(N)=O)NC(=O)[C@@H](NC(=O)[C@H](Cc1ccccc1)NC(=O)[C@H](CCC(=O)O)NC(=O)[C@H](CCCCN)NC(=O)[C@H](C)NC(=O)[C@H](CCCNC(=N)N)NC(=O)[C@H](CCCCN)NC(=O)[C@H](CCC(=O)O)NC(=O)[C@H](CC(=O)O)NC(=O)[C@H](CC(C)C)NC(=O)[C@H](Cc1ccc(O)cc1)NC(=O)[C@H](CCCCN)NC(=O)[C@H](CO)NC(=O)[C@H](Cc1ccc(O)cc1)NC(=O)[C@H](CC(=O)O)NC(=O)[C@H](CCC(=O)O)NC(=O)[C@@H](NC(=O)[C@H](Cc1ccccc1)NC(=O)[C@@H](NC(=O)CNC(=O)[C@H](CCC(N)=O)NC(=O)C(C)(C)NC(=O)[C@@H](N)Cc1c[nH]cn1)[C@@H](C)O)[C@@H](C)O)C(C)C)[C@@H](C)O)C(=O)N[C@@H](C)C(N)=O (H-H[Aib]QGTFTEDYSKYLDEKRAKEFVQWLMNTKRNRNNIA-NH2)
EC50 [1]: 17.6 nM
EC50 (Glucagon receptor): 9.03 nM

CC[C@H](C)[C@H](NC(=O)[C@H](CC(N)=O)NC(=O)[C@H](CC(N)=O)NC(=O)[C@H](CCCNC(=N)N)NC(=O)[C@H](CC(N)=O)NC(=O)[C@H](CCCNC(=N)N)NC(=O)[C@H](CCCCN)NC(=O)[C@@H](NC(=O)[C@H](CC(N)=O)NC(=O)[C@H](CCSC)NC(=O)[C@H](CC(C)C)NC(=O)[C@H](Cc1c[nH]c2ccccc12)NC(=O)[C@H](CCC(=O)O)NC(=O)[C@@H](NC(=O)[C@H](Cc1ccccc1)NC(=O)[C@H](CCC(=O)O)NC(=O)[C@H](CCCCN)NC(=O)[C@H](C)NC(=O)[C@H](CCCNC(=N)N)NC(=O)[C@H](CCCCN)NC(=O)[C@H](CCC(=O)O)NC(=O)[C@H](CC(=O)O)NC(=O)[C@H](CC(C)C)NC(=O)[C@H](Cc1ccc(O)cc1)NC(=O)[C@H](CCCCN)NC(=O)[C@H](CO)NC(=O)[C@H](Cc1ccc(O)cc1)NC(=O)[C@H](CC(=O)O)NC(=O)[C@H](CO)NC(=O)[C@@H](NC(=O)[C@H](Cc1ccccc1)NC(=O)[C@@H](NC(=O)CNC(=O)[C@H](CCC(N)=O)NC(=O)C(C)(C)NC(=O)[C@@H](N)Cc1c[nH]cn1)[C@@H](C)O)[C@@H](C)O)C(C)C)[C@@H](C)O)C(=O)N[C@@H](C)C(N)=O (H-H[Aib]QGTFTSDYSKYLDEKRAKEFVEWLMNTKRNRNNIA-NH2)
EC50 [1]: 1.36 nM
EC50 (Glucagon receptor): 1.44 nM

CC[C@H](C)[C@H](NC(=O)[C@H](CC(N)=O)NC(=O)[C@H](CC(N)=O)NC(=O)[C@H](CCCNC(=N)N)NC(=O)[C@H](CC(N)=O)NC(=O)[C@H](CCCNC(=N)N)NC(=O)[C@H](CCCCN)NC(=O)[C@@H](NC(=O)[C@H](CC(N)=O)NC(=O)[C@H](CCSC)NC(=O)[C@H](CC(C)C)NC(=O)[C@H](Cc1c[nH]c2ccccc12)NC(=O)[C@H](CCC(N)=O)NC(=O)[C@@H](NC(=O)[C@H](Cc1ccccc1)NC(=O)[C@H](CC(=O)O)NC(=O)[C@H](CCCCN)NC(=O)[C@H](C)NC(=O)[C@H](CCCNC(=N)N)NC(=O)[C@H](CCCNC(=N)N)NC(=O)[C@H](CCC(=O)O)NC(=O)[C@H](CC(=O)O)NC(=O)[C@H](CC(C)C)NC(=O)[C@H](Cc1ccc(O)cc1)NC(=O)[C@H](CCCCN)NC(=O)[C@H](CO)NC(=O)[C@H](Cc1ccc(O)cc1)NC(=O)[C@H](CC(=O)O)NC(=O)[C@H](CO)NC(=O)[C@@H](NC(=O)[C@H](Cc1ccccc1)NC(=O)[C@@H](NC(=O)CNC(=O)[C@H](CCC(N)=O)NC(=O)C(C)(C)NC(=O)[C@@H](N)Cc1c[nH]cn1)[C@@H](C)O)[C@@H](C)O)C(C)C)[C@@H](C)O)C(=O)N[C@@H](C)C(N)=O (H-H[Aib]QGTFTSDYSKYLDERRAKDFVQWLMNTKRNRNNIA-NH2)
EC50 [1]: 1.59 nM
EC50 (Glucagon receptor): 3.41 nM
